This note sets out measurements from PMC5431807, “Structural Basis for Importin-α Binding of the Human Immunodeficiency Virus Tat” (Scientific Reports, 2017).

“Also recorded” adds a separate entry of the source.

Test [1] deals with T1, importin-α (Mus musculus, UniProt P52293). The test can be described thus: X-ray crystal structure of Tat:NLS/CPP importin-α complex (PDB 5SVZ).
Test [2] has as its target T1, importin-α. The test can be described thus: Binding of importin-α to immobilised GST-Tat:NLS/CPP on glutathione column, SDS-PAGE. Also on record: 6-His; made in house; The pET30 vector and Studier autoinduction imply E. coli (own inference). The conditions noted are these: GST-Tat:NLS/CPP fusion immobilised on glutathione column, importin-α passed over.
Where [3] appears, read: overall binding, 2.0 Å structure.

On to “GRKKRRQRRRAPQN [Tat:NLS/CPP, entire cell penetrating region of HIV-1 Tat, residues 48–61, recombinantly expressed as a GST-fusion, tag cleaved by TEV for crystallisation]”, for which the “binding site on importin-α” value at importin-α [1] (2.0 Å structure) was “binds to the major binding site of importin-α within ARM domains 2–4; also recorded: no NLS residues in the minor binding site”. Further, the hydrogen bond distance at importin-α [1] (Tat Arg49 O – importin-α Asn235 ND2, PDBSum) turned out to be 2.77 Å; at importin-α [1] (Tat Arg52 NH1 – importin-α Arg106 O, PDBSum) it was 2.81 Å; at importin-α [1] (Tat Arg52 NH1 – importin-α Leu104 O, PDBSum), 2.84 Å; on importin-α [1] (Tat Arg52 NH2 – importin-α Arg106 O, PDBSum), 3.02 Å; at importin-α [1] (Tat Arg52 NH2 – importin-α Glu107 O, PDBSum), 3.20 Å; at importin-α [1] (Tat Arg53 N – importin-α Asn146 OD1, PDBSum), 2.89 Å. Moreover, the hydrogen bond distance is given as 2.49 Å on importin-α [1] (Tat Arg53 NH1 – importin-α Gln181 OE1, PDBSum); 2.66 Å on importin-α [1] (Tat Arg53 O – importin-α Asn146 ND2, PDBSum); 3.24 Å on importin-α [1] (Tat Arg53 O – importin-α Trp142 NE1, PDBSum); 2.91 Å on importin-α [1] (Tat Lys50 NZ – importin-α Gly150 O, PDBSum); 2.80 Å on importin-α [1] (Tat Lys50 NZ – importin-α Thr155 OG1, PDBSum); 2.81 Å on importin-α [1] (Tat Lys51 N – importin-α Asn188 OD1, PDBSum). Moreover, the hydrogen bond distance is recorded as 2.79 Å at importin-α [1] (Tat Lys51 O – importin-α Asn188 ND2, PDBSum) and 3.02 Å at importin-α [1] (Tat Lys51 O – importin-α Trp184 NE1, PDBSum). For the same sequence, the salt bridge distance at importin-α [1] (Tat Lys50 NZ – importin-α Asp192 OD1, salt bridge interaction, PDBSum) is on record as 2.89 Å. The sequence also had a buried surface area at importin-α [1] (setting [3]) of 717 Å^2. Besides, the “number of salt bridge interactions” value on importin-α [1] (setting [3]) came out at 1 salt bridge. At importin-α [2], the “binding to importin-α (column retention / complex formation)” value was “strong and direct interaction”.
